Patent US20160168155A1, “POLYMORPH OF SYK INHIBITORS” (GILEAD CONNECTICUT, INC., priority 2013, published 2016)
One block for each compound: values may come before it.

What was measured:
[1] = Intrinsic dissolution rate, rotating disk apparatus; type: physicochemical
Experimental: Intrinsic dissolution rate experiments were conducted using a rotating disk apparatus. Disks of drug substance were prepared by directly compressing 100 mg of powder of polymorph Form 3 in a die at a pressure of 2500 psi for 2 minutes using a hydraulic press (Carver Press, Fred Carver, NJ, USA). The exposed surface area for the resulting disk was 0.5 cm^2. A regular USP dissolution apparatus maintained at 37±0.5° C. was used for the dissolution study. Each dissolution vessel contained 500 mL of aqueous dissolution medium of 0.05 N HCl or pH 6.8 20 mM phosphate buffer with 1% cetyltrimetrylammonium bromide (CTAB). The disk holder (die) was half-immersed into the dissolution medium and rotated at 100 rpm. Samples were withdrawn at specified time intervals and analyzed by HPLC.
The dissolution rate (J) of solid per unit surface area may be described by a diffusion model:
Where D is the diffusion coefficient of the solute, h is the diffusion layer thickness during dissolution at the surface of solid, Cs is the saturation solubility of the solid in the dissolution medium, and Cb is its concentration in the bulk medium. Under sink condition (Cs>>Cb) Equation 2 is reduced to: […]
where dissolution rate is directly proportional to the saturated solubility.

[2] = Hygroscopicity by dynamic vapor sorption (Q5000SA), Example 6A; type: physicochemical; conditions: for hygroscopicity: 0 to 90% RH
Experimental: Hygroscopicity of polymorph Form 3 and polymorph Form 7 at 25° C. was determined by dynamic vapor sorption (DVS) using an automated vapor sorption balance (Q5000SA; TA instruments, New Castle, Del.). Hygroscopicity was studied as a function of relative humidity (RH) over the range of 0 to 90%. Approximately 10 mg of solid sample was placed directly onto the 13 mm quartz DVS sample cup and equilibrated at 0% relative humidity (RH) until a constant weight was achieved. After equilibration, the RH was increased in increments of 10% to reach 90%, and the water sorption was monitored. For desorption, the relative humidity was deceased in a similar manner to accomplish a full sorption/desorption cycle.
For all experiments, the instrument was operated in dm/dt mode (mass variation over time) to determine when equilibrium was reached. A fixed dm/dt value of 0.0010% min^−1 was selected for all RH segments. A maximum stage of 360 minutes and a minimum stage of 60 minutes were selected for these experiments.

[3] = Moisture sorption isotherms (Hiden IGASorp / SMS DVS Intrinsic), Example 6B; type: physicochemical; conditions: for water uptake up to 90% RH / hygroscopicity: 25° C.; for hygroscopicity: sorption isotherm, 0-90% RH
Experimental: Sorption isotherms were obtained using a Hiden IGASorp moisture sorption analyser, controlled by CFRSorp software. The sample temperature was maintained at 25° C. by a Huber re-circulating water bath. The humidity was controlled by mixing streams of dry and wet nitrogen, with a total flow rate of 250 ml/min. The relative humidity (RH) was measured by a calibrated Vaisala RH probe (dynamic range of 0-95% RH), located near the sample. The weight change, (mass relaxation) of the sample as a function of % RH was constantly monitored by the microbalance (accuracy ±0.001 mg).
10-20 mg of sample was placed in a tared mesh stainless steel basket under ambient conditions. The sample was loaded and unloaded at 40% RH and 25° C. (typical room conditions).
A moisture sorption isotherm was performed as outlined in Table 1 below (2 scans giving 1 complete cycle). The standard isotherm was performed at 25° C. at 10% RH intervals over a 0-90% RH range.
The software uses a least squares minimization procedure together with a model of the mass relaxation, to predict an asymptotic value. The measured mass relaxation value must be within 5% of that predicted by the software, before the next % RH value is selected. The minimum equilibration time was set to 1 hour and the maximum to 4 hours. Data analysis was carried out using IGASorp Systems Software v 6.50.55. The sample was recovered after completion of the isotherm and re-analyzed by XRPD.
In other cases, sorption isotherms were also obtained using a SMS DVS Intrinsic moisture sorption analyser, controlled by DVS Intrinsic Control software v1.0.1.2 (or v 1.0.1.3). The sample temperature was maintained at 25° C. by the instrument controls. The humidity was controlled by mixing streams of dry and wet nitrogen, with a total flow rate of 200 ml/min. The relative humidity was measured by a calibrated Rotronic probe (dynamic range of 1.0-100% RH), located near the sample. The weight change, (mass relaxation) of the sample as a function of % RH was constantly monitored by the microbalance (accuracy ±0.005 mg).
5-20 mg of sample was placed in a tared mesh stainless steel basket under ambient conditions. The sample was loaded and unloaded at 40% RH and 25° C. (typical room conditions). A moisture sorption isotherm was performed as outlined in Table 2 below (2 scans giving 1 complete cycle). The standard isotherm was performed at 25° C. at 10% RH intervals over a 0-90% RH range. Data analysis was carried out using Microsoft Excel using DVS Analysis Suite v6.2 (or 6.1 or 6.0). The sample was recovered after completion of the isotherm and re-analyzed by XRPD.

[4] = PK study in pentagastrin- or famotidine-pretreated dogs, oral tablets; conditions: famotidine-pretreated dogs, tablet
[5] = DVS, 25° C., listed as Polymorph Form 3
[6] = DVS, 25° C., listed as Polymorph Form 7

- IDR higher than mono MSA ([1]; pH 6.8): 400 fold
- Intrinsic dissolution rate in pH 6.8 20 mM phosphate with 1% CTAB ([1]; pH 6.8, rotating disk, 37° C., 100 rpm): 1.2 mg/min/cm^2
- hygroscopicity ([2]; DVS, 25° C.): not observed to be hygroscopic
- water adsorption / weight gain at 90% RH [2, 5]: ~28%
- solid form after DVS experiment (XRPD) ([2]; sample collected at end of DVS): converted to Form 7
- water uptake up to 90% RH ([3]; listed as Form 3): ~20 wt. %
- solid form after DVS analysis (XRPD) ([3]; sample after DVS analysis): converted to Form 7
- hygroscopicity [3]: not hygroscopic
- Solubility in water (Solubility in water): >100 mg/mL
- final pH (Solubility in water; final pH of the water solubility sample): (final pH < 1.5)
- increase of AUC0-24 compared to the mono-MSA salt formulation [4]: more than 10 fold
Compound: c1cn2cc(-c3ccc4cn[nH]c4c3)nc(Nc3ccc(N4CCOCC4)cc3)c2n1 [polymorph Form 3]
- hygroscopicity [2, 5]: not observed to be hygroscopic at 70% RH and below
- hygroscopicity ([3]; listed as Polymorph Form 3): not observed to be hygroscopic at 70% RH and below

- Intrinsic dissolution rate in pH 1.3 0.05N HCl with 0.9% NaCl ([1]; pH 1.3, rotating disk, 37° C., 100 rpm): 0.00046 mg/min/cm^2
- Intrinsic dissolution rate in pH 6.8 20 mM phosphate with 1% CTAB ([1]; pH 6.8, rotating disk, 37° C., 100 rpm, listed as free base of Formula I): no free base was detectable
- Solubility in water (Solubility in water): <0.00005 mg/mL
Compound: c1cn2cc(-c3ccc4cn[nH]c4c3)nc(Nc3ccc(N4CCOCC4)cc3)c2n1 [Free Base, Compound of Formula I]

- hygroscopicity [2, 6]: highly hygroscopic
- weight gain at 40% RH ([2]; DVS, 25° C., 40% RH): ~10%
- water adsorption / weight gain at 90% RH [2, 6]: ~22%
- water uptake up to 90% RH ([3]; listed as Polymorph Form 7): ~21 wt. %
- solid form below the stable RH interval ([3]; below 30% RH): becomes amorphous
- RH interval in which the form is stable ([3]; room temperature): 30-60 % RH
- hygroscopicity ([3]; listed as Polymorph Form 7): highly hygroscopic
Compound: c1cn2cc(-c3ccc4cn[nH]c4c3)nc(Nc3ccc(N4CCOCC4)cc3)c2n1 [polymorph Form 7]
